This is an account of results in patent US10798941B2, “Microbiocidal oxadiazole derivatives” (SYNGENTA PARTICIPATIONS AG, priority 2016, dated 2020).

For one data set, the system named is Phakopsora pachyrhizi. In words: Phakopsora pachyrhizi / soybean / leaf disc preventative (Asian soybean rust). The data set is classed as in vivo. The note with it: foliar, 288 h, 200 ppm in the applied formulation, soybean leaf disks, inoculated one day after application, assessed 12 to 14 days after application, vs untreated, read-out: disease control. The essentials:
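Read-out is percent disease control relative to untreated check discs, assessed once untreated discs show adequate disease, 12 to 14 days after application. Compounds, tested at 200 ppm in the applied formulation, are sprayed onto soybean leaf discs one day before inoculation with a spore suspension.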

In data set [1] the test system is Glomerella Lagenarium (Colletotrichum Lagenarium). In words: Glomerella lagenarium (Colletotrichum lagenarium) liquid culture / cucumber / preventative (anthracnose). Format: cell-based. The settings on record: Colletotrichum orbiculare; 20 ppm in the applied formulation; liquid culture in PDB, 24° C., inhibition of growth measured photometrically 3 to 4 days after application, vs untreated; read-out: disease control. The essentials: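 Conidia from cryogenic storage were mixed into potato dextrose broth. This was added to compound diluted from DMSO into 0.025% Tween20, tested at 20 ppm. Plates were incubated in the dark at 24 °C and 96% relative humidity, and growth was read photometrically after 2–7 days as % activity versus untreated check.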

Data set [2] has as its system Puccinia recondita f. Sp. Tritici. In words: Puccinia recondita f. sp. tritici / wheat / leaf disc preventative (brown rust). The data set is classed as in vivo. The settings on record: foliar, 168 h, 200 ppm in the applied formulation, wheat leaf segments cv. Kanzler, preventative, inoculated 1 day after application, assessed 7 to 9 days after application, vs untreated, read-out: disease control. The essentials:
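Preventative leaf-segment test: spray application of diluted formulated compound on wheat cv. Kanzler, spore inoculation after 1 day. Percent control relative to untreated segments rated 7 to 9 days post-application, with incubation at 19° C, 75% relative humidity, 12 h photoperiod.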

The test system is the same in data set [3]. Description: Puccinia recondita f. sp. tritici / wheat / leaf disc curative (brown rust). The note with it: foliar, 144 h, 200 ppm in the applied formulation, wheat leaf segments cv. Kanzler, applied 1 day after inoculation, assessed 6 to 8 days after application, vs untreated, read-out: disease control. The data set is classed as in vivo. A digest of the protocol: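 Segments of wheat (cultivar Kanzler) sit on agar and are spore-inoculated first; after one day in darkness at 19° C and 75% RH the diluted formulated compound is sprayed on. A 12 h photoperiod follows at the same temperature and humidity before disease is scored against untreated controls.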

For the next data set, the system named is Uromyces viciae-Fabae. Description: Uromyces viciae-fabae / field bean / leaf disc preventative (faba-bean rust). Format: in vivo. The settings on record: foliar, 288 h, 100 ppm in the applied formulation, field bean leaf discs, inoculated two hours after application, assessed 12 days after application, vs untreated, read-out: disease control. How it is done: Leaf disks or leaf segments of various plant species are cut from plants grown in a greenhouse. The cut leaf disks or segments are placed in multiwell plates (24-well format) onto water agar. The leaf disks are sprayed with a test solution before (preventative) or after (curative) inoculation. Compounds to be tested are prepared as DMSO solutions (max. 10 mg/ml) which are diluted to the appropriate concentration with 0.025% Tween20 just before spraying. The inoculated leaf disks or segments are incubated under defined conditions (temperature, relative humidity, light, etc.) according to the respective test system. A single evaluation of disease level is carried out 3 to 14 days after inoculation, depending on the pathosystem. Percent disease control relative to the untreated check leaf disks or segments is then calculated.
Field bean leaf discs are placed on water agar in multiwell plates (96-well format) and 10 μl of the formulated test compound diluted in acetone and a spreader pipetted onto the leaf disc. Two hours after application leaf discs are inoculated by spraying a spore suspension on the lower leaf surface. The leaf discs are incubated in a climate cabinet at 22° C. with 18 hour day and 70% relative humidity. The activity of a compound is assessed as percent disease control compared to untreated when an appropriate level of disease damage appears in untreated check leaf disks (12 days after application).
The following compounds at 100 ppm in the applied formulation give at least 80% disease control in this test when compared to untreated control leaf discs under the same conditions, which show extensive disease development.

Bounds are passed on as bounds.

For orientation: melting point means the temperature, or range, at which the solid turns liquid. As for `CCn1cc(-c2cn(Cc3ccc(-c4noc(C(F)(F)F)n4)cc3)nn2)c(C)n1` [Compound 1.1, 3-[4-[[4-(1-ethyl-3-methyl-pyrazol-4-yl)triazol-1-yl]methyl]phenyl]-5-(trifluoromethyl)-1,2,4-oxadiazole], the melting point was 116.2 to 118.2 °C. Further, the pest or weed control at 200 ppm with Phakopsora pachyrhizi was ≥ 80%. Moreover, in data set [1], the inhibition of growth at 20 ppm is ≥ 80%. The pest or weed control at 200 ppm in data set [2] is ≥ 80%. The pest or weed control at 200 ppm in data set [3] is ≥ 80%. Further, the pest or weed control at 100 ppm with Uromyces viciae-Fabae was ≥ 80%.
`FC(F)(F)c1nc(-c2ccc(Cn3cc(-c4ccccc4)nn3)cc2)no1` [Compound 1.4, 3-[4-[(4-phenyltriazol-1-yl)methyl]phenyl]-5-(trifluoromethyl)-1,2,4-oxadiazole] had a melting point of 161.5 to 164.4 °C. In addition, the pest or weed control at 200 ppm in the data set with Phakopsora pachyrhizi was ≥ 80%. Also, in data set [1], the inhibition of growth at 20 ppm was ≥ 80%. Also, in data set [2], the pest or weed control at 200 ppm was ≥ 80%. For the same compound, in the data set with Uromyces viciae-Fabae, the pest or weed control at 100 ppm is ≥ 80%.
`CC(=O)OCc1cn(Cc2ccc(-c3noc(C(F)(F)F)n3)cc2)nn1` [Compound 1.7, [1-[[4-[5-(trifluoromethyl)-1,2,4-oxadiazol-3-yl]phenyl]methyl]triazol-4-yl]methyl acetate] came in with a melting point of 157.4 to 160.4 °C. Further, the pest or weed control at 200 ppm in the data set on Phakopsora pachyrhizi is ≥ 80%. In data set [1], the inhibition of growth at 20 ppm is ≥ 80%. Moreover, the pest or weed control at 200 ppm in data set [2] is ≥ 80%. Moreover, in the data set on Uromyces viciae-Fabae, the pest or weed control at 100 ppm is ≥ 80%.
With `FC(F)(F)c1nc(-c2ccc(Cn3cc(-c4ccsc4)nn3)cc2)no1` [Compound 1.8, 3-[4-[[4-(3-thienyl)triazol-1-yl]methyl]phenyl]-5-(trifluoromethyl)-1,2,4-oxadiazole], the melting point was in the range of 160.2 to 163.9 °C. Besides, in data set [1], the inhibition of growth at 20 ppm was ≥ 80%. The pest or weed control at 200 ppm in data set [2] is ≥ 80%. In addition, the pest or weed control at 200 ppm in data set [3] was ≥ 80%. Also, the pest or weed control at 100 ppm in the data set with Uromyces viciae-Fabae is ≥ 80%.
Take `CCOCc1cn(Cc2ccc(-c3noc(C(F)(F)F)n3)cc2)nn1` [Compound 1.11, 3-[4-[[4-(ethoxymethyl)triazol-1-yl]methyl]phenyl]-5-(trifluoromethyl)-1,2,4-oxadiazole]: the melting point lay in the range of 115.7 to 117.6 °C. Besides, the pest or weed control at 200 ppm with Phakopsora pachyrhizi is ≥ 80%. The pest or weed control at 200 ppm in data set [2] was ≥ 80%. In addition, the pest or weed control at 200 ppm in data set [3] was ≥ 80%. The pest or weed control at 100 ppm in the data set with Uromyces viciae-Fabae was ≥ 80%.
Take `COc1ccc(-c2cn(Cc3ccc(-c4noc(C(F)(F)F)n4)cc3)nn2)cc1` [Compound 1.12, 3-[4-[[4-(4-methoxyphenyl)triazol-1-yl]methyl]phenyl]-5-(trifluoromethyl)-1,2,4-oxadiazole]: the melting point was 187.7 to 196.2 °C. In addition, in data set [2], the pest or weed control at 200 ppm is ≥ 80%. Also, the pest or weed control at 100 ppm in the data set on Uromyces viciae-Fabae was ≥ 80%.
The compound `Cc1ccc(-c2cn(Cc3ccc(-c4noc(C(F)(F)F)n4)cc3)nn2)cc1` [Compound 1.14, 3-[4-[[4-(p-tolyl)triazol-1-yl]methyl]phenyl]-5-(trifluoromethyl)-1,2,4-oxadiazole] had a melting point of 200.6 to 204.2 °C. In addition, the pest or weed control at 100 ppm in the data set on Uromyces viciae-Fabae was ≥ 80%.
`FC(F)c1cc(C(F)F)n(Cc2ccc(-c3noc(C(F)(F)F)n3)cc2)n1` [Compound 1.17, 3-[4-[[3,5-bis(difluoromethyl)pyrazol-1-yl]methyl]phenyl]-5-(trifluoromethyl)-1,2,4-oxadiazole]: the melting point lay in the range of 53 to 58 °C. Also, the pest or weed control at 200 ppm in the data set on Phakopsora pachyrhizi was ≥ 80%. For the same compound, the inhibition of growth at 20 ppm in data set [1] is ≥ 80%. In addition, the pest or weed control at 100 ppm in the data set with Uromyces viciae-Fabae was ≥ 80%.
